Measured values published in PubChem BioAssay (NCI).
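In this assay, cells in 96-well plates receive the compound at five concentrations for 48 hours. Endpoints are linearly interpolated between the surrounding concentrations. The concentration for 50% growth inhibition is given as GI50. TGI marks complete inhibition of growth.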

Tests used:
Assay in all cases: inhibition of tumour cell growth, NCI panel, 48 h
[1] = system: SK-MEL-2 melanoma
[2] = system: CCRF-CEM leukemia
[3] = system: SN12C renal
[4] = system: NCI/ADR-RES ovarian
[5] = system: T-47D breast
[6] = system: MDA-N
[7] = system: HS 578T breast
[8] = system: PC-3 prostate
[9] = system: BT-549 breast
[10] = system: MDA-MB-231 breast

Row | SMILES | TGI [1] [µM] | TGI [2] [µM] | TGI [3] [µM] | TGI [4] [µM] | TGI [5] [µM] | TGI [6] [µM] | TGI [7] [µM] | TGI [8] [µM] | TGI [9] [µM] | TGI [10] [µM] | GI50 [2] [µM] | GI50 [7] [µM] | GI50 [10] [µM]
1 | CCCCn1cc(C(=O)O)c(=O)c2c3sccc3ccc21 | > 100 | > 100 | > 100 | 43.4 | > 100 | > 100 | > 100 | > 100 | > 100 | > 100 |  |  | 
2 | COC(=O)C12CC(C3CC31)C1CC12 (centres undefined) |  | > 100 | > 100 |  |  |  |  |  |  |  |  |  | 
3 | Cn1c(N)c(/C=N/NC(=O)CC#N)c(=O)n(C)c1=O | > 100 | > 100 | > 100 | > 100 | > 100 | > 100 | > 100 | > 100 | > 100 | > 100 |  |  | 
4 | O=C1c2ccccc2S(=O)(=O)c2ccccc21 | > 100 | > 100 | > 100 | > 100 | > 100 | > 100 | > 100 | > 100 | > 100 | > 100 |  |  | 
5 | Cc1ncc([N+](=O)[O-])n1CCN=[N+]=[N-] | > 100 |  | > 100 | > 100 | > 100 | > 100 | > 100 | > 100 | > 100 | > 100 |  |  | 
6 | Cc1cccc(NC(=O)CC(=O)N2N=C(N3c4ccccc4Sc4ccccc43)CC2c2ccccc2)c1 (centres undefined) | > 100 | > 100 | > 100 | > 100 | > 100 |  | > 100 | > 100 | > 100 | > 100 |  |  | 
7 | CCOC(=O)CCC1(C(=O)OC)CCCC1=O (centres undefined) | > 100 |  |  |  |  |  |  |  |  |  |  |  | 
8 | C=C(CCOC)CCC1CCCCC(=C)C1=O (centres undefined) | > 100 | > 100 | > 100 | > 100 | > 100 | > 100 | > 100 | > 100 | > 100 | > 100 |  |  | 
9 | Cc1ccc(Nc2nc(=O)[nH]c(=O)[nH]2)cc1N | > 100 | > 100 | > 100 | > 100 | > 100 | > 100 | > 100 | > 100 | > 100 | > 100 |  |  | 
10 | COc1cc(C(=O)Nc2nnc(S(N)(=O)=O)s2)cc(OC)c1OC | > 100 |  | > 100 | > 100 | > 100 | > 100 | > 100 |  | > 100 | > 100 |  |  | 
11 | O=c1c(Cc2ccc(Cl)cc2)nnc2sc(-c3ccc([N+](=O)[O-])cc3)nn12 | 33.7 | 55.8 | > 100 | > 100 |  | > 100 | > 100 | 47.2 | 55.6 | 66.3 |  |  | 
12 | CN(C)c1ccc(/C=C(\NC(=O)c2ccccc2)C(=O)Nc2ccccc2C(=O)NN2C(=O)CSC2c2ccc(N(C)C)cc2)cc1 (centres undefined) | > 100 | > 100 | > 100 | > 100 | > 100 | > 100 | > 100 | > 100 | > 100 | > 100 |  |  | 
13 | CCCCC[C@H](O)[C@H](C)C=C1SCCCS1 | > 100 | > 100 | > 100 | > 100 | > 100 | > 100 | > 100 | > 100 | > 100 | > 100 |  |  | 
14 | c1ccc2c(c1)CCCc1cc3ccccc3nc1-2 | > 100 | > 100 | > 100 |  |  |  |  |  |  |  |  |  | 
15 | COc1cn2c(cc1=O)COc1ccc(-c3ccccc3)cc1-2 | > 100 | > 100 | > 100 | > 100 | > 83.3 | > 100 | > 100 | > 100 | > 82.9 | > 100 | 40.2 | 43.6 | > 100
16 | c1ccc(C2=NN3CN(N2)c2ccccc2OCCCOc2ccccc23)cc1 | > 100 | > 100 | > 100 |  |  |  |  |  |  |  |  |  | 
17 | CCCCCCCCCCCCOC1C(COCCN2CCCC2)OC2OC(C)(C)OC21 (centres undefined) | 3.09 | 5.39 | 3.24 | 4.37 | 4.11 | 2.76 | 3.51 | 3.16 | 3.22 | 2.92 |  |  | 
18 | CC1=NN(C(=O)CC(=O)Nc2cccc(Cl)c2)C(=O)C1N=Nc1ccc(S(N)(=O)=O)cc1 (centres undefined) | > 100 |  | > 100 |  |  |  |  |  |  |  |  |  | 
19 | CNc1ccc2nc(-c3ccc(OC(=O)N(C)C)cc3)cn2c1 | 31.8 | 32.3 | 27.2 | 59.1 | 47.2 | 38 | > 100 | 29.5 | 31.6 | 31.5 |  |  | 
20 | O=C1c2ccccc2NC2C(O)c3ccccc3N12 (centres undefined) | > 100 | 54.6 | > 100 | > 100 | > 100 |  | > 100 | > 100 | > 100 | > 100 |  |  | 
21 | CCCCN(CCCC)C(=NCc1ccccc1)NC#N | 39 | 37.1 | 44.4 |  |  |  |  |  |  |  |  |  | 
22 | CC(=O)Oc1ccc2cc(Oc3ccc(Cl)cc3)c(=O)oc2c1 |  |  | > 100 |  | > 100 | 78.8 | > 100 | 78.7 | 83.8 | > 100 |  |  | 
23 | C/C(=N\N(C)C)C(CN(C)C)C(c1ccccc1)c1c(O)c2ccccc2oc1=O (centres undefined) | > 100 | > 100 | > 100 |  |  |  |  |  |  |  |  |  | 
24 | COc1ccc(Cn2nc(OCc3ccccn3)c3cc([N+](=O)[O-])ccc32)cc1 | > 100 | > 100 | > 100 | > 100 | > 100 | > 100 | > 100 | > 100 | > 100 | > 100 |  |  | 
25 | O=S1(=O)NNC(=NCc2ccc(F)cc2)c2ccccc21 | > 100 | > 72.7 | > 100 | > 100 | > 100 | > 100 | 49.2 |  | > 100 | > 100 |  |  | 
26 | Cc1cc(S(=O)(=O)Nc2n[nH]c(Nc3ccccc3)n2)c(S)cc1Cl | > 10 | > 10 | > 10 | > 10 | > 10 |  | > 10 | > 10 | > 10 | > 10 |  |  | 
